{
  "source": "ChEMBL document CHEMBL5291721",
  "about": "“A preclinical secondary pharmacology resource illuminates target-adverse drug reaction associations of marketed drugs” (Nat Commun, 2023); note: assay procedure not described here",
  "key": {"[1]": {"molecular_target": "Rod cGMP-specific 3',5'-cyclic phosphodiesterase subunit alpha (Homo sapiens, UniProt P16499)", "sequence (P16499 whole entry)": "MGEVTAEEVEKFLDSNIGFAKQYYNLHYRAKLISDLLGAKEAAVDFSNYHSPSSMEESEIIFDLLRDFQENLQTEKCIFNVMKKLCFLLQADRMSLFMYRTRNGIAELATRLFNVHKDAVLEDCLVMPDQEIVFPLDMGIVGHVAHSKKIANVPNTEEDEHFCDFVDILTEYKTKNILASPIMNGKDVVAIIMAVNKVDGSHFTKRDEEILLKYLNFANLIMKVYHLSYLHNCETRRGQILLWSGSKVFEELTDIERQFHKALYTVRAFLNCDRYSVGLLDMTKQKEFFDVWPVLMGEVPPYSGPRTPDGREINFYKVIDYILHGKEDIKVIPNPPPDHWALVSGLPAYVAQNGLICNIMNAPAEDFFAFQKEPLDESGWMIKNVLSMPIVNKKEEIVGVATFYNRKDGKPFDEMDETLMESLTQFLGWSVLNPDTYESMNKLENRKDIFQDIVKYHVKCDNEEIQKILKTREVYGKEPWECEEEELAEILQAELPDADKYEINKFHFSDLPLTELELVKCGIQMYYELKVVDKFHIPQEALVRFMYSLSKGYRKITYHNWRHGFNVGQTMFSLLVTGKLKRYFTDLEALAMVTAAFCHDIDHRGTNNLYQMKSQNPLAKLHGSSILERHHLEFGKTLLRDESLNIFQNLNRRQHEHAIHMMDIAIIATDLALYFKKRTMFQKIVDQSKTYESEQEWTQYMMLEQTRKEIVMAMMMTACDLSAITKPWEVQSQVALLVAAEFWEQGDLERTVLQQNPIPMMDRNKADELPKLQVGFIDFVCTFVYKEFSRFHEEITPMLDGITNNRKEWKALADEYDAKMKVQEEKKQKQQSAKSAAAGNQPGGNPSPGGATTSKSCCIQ", "assay_type": "functional"}, "Androgen receptor": {"molecular_target": "T1, Androgen receptor (Rattus norvegicus, UniProt P15207)", "T1 sequence (P15207 whole entry)": "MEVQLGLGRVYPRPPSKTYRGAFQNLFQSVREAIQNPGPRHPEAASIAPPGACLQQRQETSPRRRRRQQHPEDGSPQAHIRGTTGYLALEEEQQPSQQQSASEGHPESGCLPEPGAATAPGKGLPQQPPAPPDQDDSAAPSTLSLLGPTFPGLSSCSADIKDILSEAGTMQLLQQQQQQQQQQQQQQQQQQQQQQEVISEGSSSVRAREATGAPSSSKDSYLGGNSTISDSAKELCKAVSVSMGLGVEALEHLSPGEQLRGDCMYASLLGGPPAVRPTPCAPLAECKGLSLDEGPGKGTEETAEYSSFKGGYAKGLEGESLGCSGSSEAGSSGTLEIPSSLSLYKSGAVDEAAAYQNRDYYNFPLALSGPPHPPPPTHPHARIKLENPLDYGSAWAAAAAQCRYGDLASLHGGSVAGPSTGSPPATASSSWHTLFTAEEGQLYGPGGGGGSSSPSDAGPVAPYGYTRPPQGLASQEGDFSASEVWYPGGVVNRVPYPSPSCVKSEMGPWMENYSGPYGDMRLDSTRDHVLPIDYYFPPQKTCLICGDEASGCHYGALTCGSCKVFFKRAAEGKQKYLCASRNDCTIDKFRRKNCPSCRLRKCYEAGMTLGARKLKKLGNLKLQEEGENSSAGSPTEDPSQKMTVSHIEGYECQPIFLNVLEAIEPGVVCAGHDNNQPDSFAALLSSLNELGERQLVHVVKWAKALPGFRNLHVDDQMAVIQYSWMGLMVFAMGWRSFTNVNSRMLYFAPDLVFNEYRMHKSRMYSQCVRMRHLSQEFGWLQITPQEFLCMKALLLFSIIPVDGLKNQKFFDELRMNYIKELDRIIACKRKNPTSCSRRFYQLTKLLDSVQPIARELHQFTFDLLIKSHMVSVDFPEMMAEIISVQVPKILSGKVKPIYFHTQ", "assay_type": "functional"}, "Bile acid receptor [2]": {"molecular_target": "T2, Bile acid receptor (Homo sapiens, UniProt Q96RI1)", "T2 sequence (Q96RI1 whole entry)": "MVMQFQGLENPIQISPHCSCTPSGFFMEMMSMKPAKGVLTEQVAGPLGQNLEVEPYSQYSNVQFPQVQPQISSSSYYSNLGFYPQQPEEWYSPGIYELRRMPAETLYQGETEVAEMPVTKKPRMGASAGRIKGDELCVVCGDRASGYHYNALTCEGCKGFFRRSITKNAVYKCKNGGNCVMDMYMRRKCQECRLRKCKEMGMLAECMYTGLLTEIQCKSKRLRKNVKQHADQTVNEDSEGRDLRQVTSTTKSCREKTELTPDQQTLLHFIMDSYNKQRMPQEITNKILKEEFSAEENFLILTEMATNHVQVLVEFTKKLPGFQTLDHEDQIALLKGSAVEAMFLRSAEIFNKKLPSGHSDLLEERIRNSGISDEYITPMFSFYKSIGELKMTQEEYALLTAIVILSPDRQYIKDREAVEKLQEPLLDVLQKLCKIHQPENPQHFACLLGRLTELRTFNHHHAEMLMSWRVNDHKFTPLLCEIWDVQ", "assay_type": "functional"}, "[3]": {"molecular_target": "T3, Retinoic acid receptor gamma (Homo sapiens, UniProt P13631)", "T3 sequence (P13631 whole entry)": "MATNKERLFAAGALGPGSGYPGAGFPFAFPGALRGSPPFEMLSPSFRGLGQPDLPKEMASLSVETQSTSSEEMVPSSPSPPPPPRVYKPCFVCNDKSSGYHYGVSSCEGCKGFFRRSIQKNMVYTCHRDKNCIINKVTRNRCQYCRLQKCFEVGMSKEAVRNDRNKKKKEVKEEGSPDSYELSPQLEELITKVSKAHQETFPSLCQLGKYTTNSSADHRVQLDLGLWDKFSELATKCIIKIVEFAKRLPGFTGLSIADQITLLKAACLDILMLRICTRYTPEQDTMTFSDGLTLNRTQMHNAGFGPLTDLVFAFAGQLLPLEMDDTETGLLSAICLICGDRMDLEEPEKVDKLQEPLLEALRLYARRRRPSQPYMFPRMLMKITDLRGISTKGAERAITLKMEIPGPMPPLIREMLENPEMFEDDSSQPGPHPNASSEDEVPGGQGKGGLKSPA", "assay_type": "functional, cell-based"}, "Bile acid receptor [4]": {"molecular_target": "T2, Bile acid receptor", "assay_type": "functional", "remark": "listed apart in the source"}, "[5]": {"molecular_target": "T4, Oxysterols receptor LXR-beta (Homo sapiens, UniProt P55055)", "T4 sequence (P55055 whole entry)": "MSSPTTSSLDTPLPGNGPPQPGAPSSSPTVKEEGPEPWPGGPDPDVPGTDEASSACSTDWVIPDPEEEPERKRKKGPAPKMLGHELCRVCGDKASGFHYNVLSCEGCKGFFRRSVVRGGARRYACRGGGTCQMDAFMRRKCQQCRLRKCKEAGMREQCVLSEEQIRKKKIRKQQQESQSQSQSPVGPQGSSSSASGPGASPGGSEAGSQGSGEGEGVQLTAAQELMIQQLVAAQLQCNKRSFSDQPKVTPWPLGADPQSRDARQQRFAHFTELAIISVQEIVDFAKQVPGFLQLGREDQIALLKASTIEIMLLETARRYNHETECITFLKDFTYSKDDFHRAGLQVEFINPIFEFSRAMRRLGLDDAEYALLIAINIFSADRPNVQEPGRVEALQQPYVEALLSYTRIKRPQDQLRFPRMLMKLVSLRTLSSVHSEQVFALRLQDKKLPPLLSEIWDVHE", "assay_type": "functional"}, "Bile acid receptor [6]": {"molecular_target": "T2, Bile acid receptor", "assay_type": "functional", "remark": "listed apart in the source"}, "[7]": {"molecular_target": "T5, Retinoic acid receptor beta (Homo sapiens, UniProt P10826)", "T5 sequence (P10826 whole entry)": "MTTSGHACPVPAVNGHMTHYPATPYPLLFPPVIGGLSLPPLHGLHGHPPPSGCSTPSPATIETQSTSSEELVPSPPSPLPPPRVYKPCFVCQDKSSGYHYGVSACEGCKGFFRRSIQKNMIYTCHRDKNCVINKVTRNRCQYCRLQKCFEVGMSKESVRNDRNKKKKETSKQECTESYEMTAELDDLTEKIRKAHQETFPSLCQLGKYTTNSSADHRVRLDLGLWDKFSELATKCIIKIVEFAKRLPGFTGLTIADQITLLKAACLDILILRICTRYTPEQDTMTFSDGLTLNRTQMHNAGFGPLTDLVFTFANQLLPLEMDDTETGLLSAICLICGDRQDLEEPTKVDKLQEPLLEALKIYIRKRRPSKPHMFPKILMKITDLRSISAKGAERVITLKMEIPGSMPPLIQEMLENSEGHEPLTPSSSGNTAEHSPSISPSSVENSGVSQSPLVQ", "assay_type": "functional, cell-based"}},
  "data": [
    {"smiles": "CCOC(=O)[C@H](CCc1ccccc1)N[C@@H](C)C(=O)N1Cc2ccccc2C[C@H]1C(=O)O", "values": [
      {"measurement": "AC50", "setting": "[1]", "result": "> 10", "unit": "µM"}
    ]},
    {"smiles": "CCN(CC)CCn1c(=O)c(Cc2ccc(OC)cc2)nc2ccccc21", "note": "[CAROVERINE]", "values": [
      {"measurement": "AC50", "setting": "Androgen receptor", "result": "> 30", "unit": "µM"}
    ]},
    {"smiles": "CC(C)/N=c1\\cc2n(-c3ccc(Cl)cc3)c3ccccc3nc-2cc1Nc1ccc(Cl)cc1", "note": "[CLOFAZIMINE]", "values": [
      {"measurement": "AC50", "setting": "Bile acid receptor [2]", "result": "> 30", "unit": "µM"},
      {"measurement": "AC50", "setting": "[3]", "result": "> 30", "unit": "µM"},
      {"measurement": "AC50", "setting": "Bile acid receptor [4]", "result": "> 30", "unit": "µM"},
      {"measurement": "AC50", "setting": "[5]", "result": "> 30", "unit": "µM"},
      {"measurement": "AC50", "setting": "Bile acid receptor [6]", "result": 16, "unit": "µM"},
      {"measurement": "AC50", "setting": "[7]", "result": "> 30", "unit": "µM"}
    ]}
  ]
}
